Consider 28 compounds from patent US8188101B2 (AstraZeneca AB, priority 2008, dated 2012).

The test system of this assay is Aβ42 release. The assay is described as follows: Aβ release in cells stably expressing APPswe, Meso Scale Discovery electrochemiluminescence assay. Format: cell-based, Human. The note with it: Homo sapiens, SH-SY5Y, HEK or SH-SY5Y cells stably expressing APPswe, 4-6 hours incubation with test compound. As for the experimental part: The level of activity of the compounds on Aβ release was tested using the following method:
Compounds were diluted in 100% DMSO and stored at […] prior to use. Human Embryonic Kidney (HEK) or Human Neuroblastoma (SH-SY5Y) cell lines stably expressing APP with the Swedish mutation (APPswe) were cultured using Dulbecco's Modified Eagles medium (DMEM) supplied with […] glucose, Na-pyruvate and GlutaMAX with 10% FBS, 100 U/ml penicillin-streptomycin (PEST) respectively, 1× non-essential amino acids (NEAA), […] Hepes, 100 μg/ml Zeocine. Cells at about 80% confluence were washed with PBS, detached from culture flasks using 1× Trypsin/EDTA diluted in PBS, re-suspended in cell media and plated in 384-well poly-d-lysine coated cell culture plates at about 10000-15000 cells/well, in 25 μL cell media. Optionally, cryo-preserved cells (frozen and stored at −140° C. in 90% cell media and 10% DMSO) were thawed, washed and plated as above. Next the cells were incubated for 15-24 h at 37° C. and 5% CO2, after which cell medium was changed. Fresh medium containing test compound diluted ×200 from prepared compound plate was added to the cells before further incubation for 4-6 hours at 37° C. and 5% CO2. After incubation with test compound the amount of Aβ peptides, including Aβ42, Aβ40, Aβ39, Aβ38 and Aβ37, secreted to the cell medium was analyzed using the electrochemiluminescence assay technology from Meso Scale Discovery Technology, in combination with specific antibodies raised against the different Aβ peptides. Potential cytotoxic effects of the compounds were usually assayed by measuring the ATP content (ViaLight) from cell lysate.
Broadly, the IC50 is the midpoint of a concentration-inhibition curve. For `Cc1nccn1-c1ccc(Nc2nc3c(c(Cc4ccc(F)cc4)n2)C[S+]([O-])CC3)cc1` (stereo not shown) [Example 64, 4-(4-Fluorobenzyl)-N-[4-(2-methyl-1H-imidazol-1-yl)phenyl]-7,8-dihydro-5H-thiopyrano[4,3-d]pyrimidin-2-amine 6-oxide], the IC50 was 1000 nM.
`C[C@H](O)C(=O)N1CCc2nc(Nc3ccc(-c4cnco4)cc3)nc(N(CCO)c3ccccc3)c2C1` [Example 20, (S)-2-Hydroxy-1-(4-((2-hydroxyethyl)(phenyl)amino)-2-(4-(oxazol-5-yl)phenylamino)-7,8-dihydropyrido[4,3-d]pyrimidin-6(5H)-yl)propan-1-one]: the IC50 was 1000 nM.
Next, `CC(=O)N1CCc2nc(Nc3ccc(-n4ccnc4C)cc3)nc(CCc3cccc(F)c3)c2C1` [Example 60, 1-(4-(3-Fluorophenethyl)-2-(4-(2-methyl-1H-imidazol-1-yl)phenylamino)-7,8-dihydropyrido[4,3-d]pyrimidin-6(5H)-yl)ethanone]: 501 nM.
Next, `CCS(=O)(=O)N1CCc2nc(Nc3ccc(-c4cnco4)cc3)nc(N(CCO)c3ccccc3)c2C1` [Example 22, 2-((6-(Ethylsulfonyl)-2-(4-(oxazol-5-yl)phenylamino)-5,6,7,8-tetrahydropyrido[4,3-d]pyrimidin-4-yl)(phenyl)amino)ethanol]: 398 nM; `CC(=O)N1CCc2nc(Nc3ccc(-c4cnco4)cc3)nc(NC3(CO)CCCC3)c2C1` [Example 35, 1-(4-(1-(Hydroxymethyl)cyclopentylamino)-2-(4-(oxazol-5-yl)phenylamino)-7,8-dihydropyrido[4,3-d]pyrimidin-6(5H)-yl)ethanone]: 3160 nM; `CC(=O)N1CCc2nc(Nc3ccc(-c4cnco4)cc3)nc(N3CCCCC3CO)c2C1` (stereo not shown) [Example 94, 1-(4-(2-(Hydroxymethyl)piperidin-1-yl)-2-(4-(oxazol-5-yl)phenylamino)-7,8-dihydropyrido[4,3-d]pyrimidin-6(5H)-yl)ethanone]: 5010 nM.
To `COc1cccc(Cc2nc(Nc3ccc(-n4ccnc4C)cc3)nc3c2CN(C(C)=O)CC3)c1` [Example 97, 1-(4-(3-Methoxybenzyl)-2-(4-(2-methyl-1H-imidazol-1-yl)phenylamino)-7,8-dihydropyrido[4,3-d]pyrimidin-6(5H)-yl)ethanone] belongs 631 nM; to `CC(=O)N1CCc2nc(Nc3ccc(-n4ccnc4C)cc3)nc(Cc3ccccc3F)c2C1` [Example 98, 1-(4-(2-Fluorobenzyl)-2-(4-(2-methyl-1H-imidazol-1-yl)phenylamino)-7,8-dihydropyrido[4,3-d]pyrimidin-6(5H)-yl)ethanone], 794 nM; to `Cc1nccn1-c1ccc(Nc2nc3c(c(NC4CCCCC4)n2)CN(C)CC3)cc1` [Example 69, N4-Cyclohexyl-6-methyl-N2-(4-(2-methyl-1H-imidazol-1-yl)phenyl)-5,6,7,8-tetrahydropyrido[4,3-d]pyrimidine-2,4-diamine], 398 nM.
For `Cc1nccn1-c1ccc(Nc2nc3c(c(N[C@@H]4CC5CCC4C5)n2)CN(C)CC3)cc1` (stereo partly drawn) [Example 10, N4-((2R)-bicyclo[2.2.1]heptan-2-yl)-6-methyl-N2-(4-(2-methyl-1H-imidazol-1-yl)phenyl)-5,6,7,8-tetrahydropyrido[4,3-d]pyrimidine-2,4-diamine], the IC50 was 501 nM.
Take `COc1cccc(Cc2nc(Nc3ccc(-n4cnc(C)c4)c(OC)c3)nc3c2CN(C)CC3)c1` [Example 95, N-(3-Methoxy-4-(4-methyl-1H-imidazol-1-yl)phenyl)-4-(3-methoxybenzyl)-6-methyl-5,6,7,8-tetrahydropyrido[4,3-d]pyrimidin-2-amine]: the IC50 was 39.8 nM.
`COc1cccc(Cc2nc(Nc3ccc(-n4cnc(C)c4)c(OC)c3)nc3c2CN(C(C)=O)CC3)c1` [Example 96, 1-(2-(3-Methoxy-4-(4-methyl-1H-imidazol-1-yl)phenylamino)-4-(3-methoxybenzyl)-7,8-dihydropyrido[4,3-d]pyrimidin-6(5H)-yl)ethanone]: the IC50 was 63.1 nM.
On to `Cc1nccn1-c1ccc(Nc2nc(CCC3CCCCC3)c3c(n2)CCN(CCO)C3)cc1` [Example 47, 2-(4-(2-Cyclohexylethyl)-2-(4-(2-methyl-1H-imidazol-1-yl)phenylamino)-7,8-dihydropyrido[4,3-d]pyrimidin-6(5H)-yl)ethanol], for which the IC50 was 79.4 nM.
To `CC(=O)N1CCc2nc(Nc3ccc(-c4cnco4)cc3)nc(N3CCc4ccccc43)c2C1` [Example 90, 1-(4-(Indolin-1-yl)-2-(4-(oxazol-5-yl)phenylamino)-7,8-dihydropyrido[4,3-d]pyrimidin-6(5H)-yl)ethanone] belongs 631 nM; to `Cc1nccn1-c1ccc(Nc2nc3c(c(Cc4ccccc4F)n2)CN(CCO)CC3)cc1` [Example 56, 2-(4-(2-Fluorobenzyl)-2-(4-(2-methyl-1H-imidazol-1-yl)phenylamino)-7,8-dihydropyrido[4,3-d]pyrimidin-6(5H)-yl)ethanol], 398 nM; to `COCC(=O)N1CCc2nc(Nc3ccc(-c4cnco4)cc3)nc(N(CCO)c3ccccc3)c2C1` [Example 18, 1-(4-((2-Hydroxyethyl)(phenyl)amino)-2-(4-(oxazol-5-yl)phenylamino)-7,8-dihydropyrido[4,3-d]pyrimidin-6(5H)-yl)-2-methoxyethanone], 2510 nM.
Regarding `CC(=O)N1CCc2nc(Nc3ccc(-n4ccnc4C)cc3)nc(Cc3ccc(C)cc3)c2C1` [Example 59, 1-(2-(4-(2-Methyl-1H-imidazol-1-yl)phenylamino)-4-(4-methylbenzyl)-7,8-dihydropyrido[4,3-d]pyrimidin-6(5H)-yl)ethanone], the IC50 was 398 nM.
To `Cc1nccn1-c1ccc(Nc2nc3c(c(CC4CCOCC4)n2)CN(C)CC3)cc1` [Example 61, 6-Methyl-N-(4-(2-methyl-1H-imidazol-1-yl)phenyl)-4-((tetrahydro-2H-pyran-4-yl)methyl)-5,6,7,8-tetrahydropyrido[4,3-d]pyrimidin-2-amine] belongs 10000 nM; to `CC(=O)N1CCc2nc(Nc3ccc(-c4cnco4)cc3)nc(NC3CCCCC3)c2C1` [Example 26, 1-(4-(Cyclohexylamino)-2-(4-(oxazol-5-yl)phenylamino)-7,8-dihydropyrido[4,3-d]pyrimidin-6(5H)-yl)ethanone], 126 nM; to `CC(=O)N1CCc2nc(Nc3ccc(-c4cnco4)cc3)nc(N(C)CC(O)c3ccccc3)c2C1` (stereo not shown) [Example 34, 1-(4-((2-Hydroxy-2-phenylethyl)(methyl)amino)-2-(4-(oxazol-5-yl)phenylamino)-7,8-dihydropyrido[4,3-d]pyrimidin-6(5H)-yl)ethanone], 3160 nM.
Regarding `COc1cc(Nc2nc3c(c(Cc4ccccc4)n2)CN(C(C)=O)CC3)ccc1-n1cnc(C)c1` [Example 107, 1-(4-Benzyl-2-(3-methoxy-4-(4-methyl-1H-imidazol-1-yl)phenylamino)-7,8-dihydropyrido[4,3-d]pyrimidin-6(5H)-yl)ethanone], the IC50 was 25.1 nM.
As for `COc1cc(Nc2nc3c(c(C(C)(C)O)n2)COCC3)ccc1-n1cnc(C)c1` [Example 103, 2-(2-(3-Methoxy-4-(4-methyl-1H-imidazol-1-yl)phenylamino)-7,8-dihydro-5H-pyrano[4,3-d]pyrimidin-4-yl)propan-2-ol], the IC50 is 100 nM.
As for `CCC(=O)N1CCc2nc(Nc3ccc(-c4cnco4)cc3)nc(N(CCO)c3ccccc3)c2C1` [Example 15, 1-(4-((2-Hydroxyethyl)(phenyl)amino)-2-(4-(oxazol-5-yl)phenylamino)-7,8-dihydropyrido[4,3-d]pyrimidin-6(5H)-yl)propan-1-one], the IC50 is 398 nM.
Turning to `COc1cc(Nc2nc(CCC3CCCO3)c3c(n2)CCN(C)C3)ccc1-n1cnc(C)c1` (stereo not shown) [Example 112, N-(3-Methoxy-4-(4-methyl-1H-imidazol-1-yl)phenyl)-6-methyl-4-(2-(tetrahydrofuran-2-yl)ethyl)-5,6,7,8-tetrahydropyrido[4,3-d]pyrimidin-2-amine], the IC50 was 126 nM.
To `COc1cc(Nc2nc3c(c(COC4CCCC4)n2)COCC3)ccc1-n1cnc(C)c1` [Example 109, 4-(Cyclopentyloxymethyl)-N-(3-methoxy-4-(4-methyl-1H-imidazol-1-yl)phenyl)-7,8-dihydro-5H-pyrano[4,3-d]pyrimidin-2-amine] belongs 20 nM.
Next, `Cc1nccn1-c1ccc(Nc2nc3c(c(N4c5ccccc5C[C@H]4CO)n2)CN(C)CC3)cc1` [Example 9, (S)-(1-(6-methyl-2-(4-(2-methyl-1H-imidazol-1-yl)phenylamino)-5,6,7,8-tetrahydropyrido[4,3-d]pyrimidin-4-yl)indolin-2-yl)methanol]: 1580 nM; `COC(c1ccccc1)c1nc(Nc2ccc(-n3ccnc3C)cc2)nc2c1COCC2` (stereo not shown) [Example 65, 4-(Methoxy(phenyl)methyl)-N-(4-(2-methyl-1H-imidazol-1-yl)phenyl)-7,8-dihydro-5H-pyrano[4,3-d]pyrimidin-2-amine]: 316 nM; `COc1cc(Nc2nc3c(c(Cc4ccccc4)n2)CNCC3)ccc1-n1cnc(C)c1` [Example 106, 4-Benzyl-N-(3-methoxy-4-(4-methyl-1H-imidazol-1-yl)phenyl)-5,6,7,8-tetrahydropyrido[4,3-d]pyrimidin-2-amine]: 63.1 nM.
